Assays:
Assay type in all cases: in vivo
[1] = system: Chenopodium album; experiment: Test Example 3: herbicidal effect test by treatment of dry field farming soil (one day after seeding); settings: 120 g/10a active ingredient, evaluated 14 days after treatment
In short: (§1)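 Pre-emergence soil treatment: alluvial dry-field soil, 20 seeds per species mixed into top 1 cm, emulsion diluted in water sprayed one day after seeding at 100 L per 10 ares (120 g active ingredient per 10 ares). Duplicate pots; herbicidal rate (%) from dry weight vs untreated at 14 days.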

[2] = system: Amaranthus viridis; experiment: as above; settings: 120 g/10a active ingredient, evaluated 14 days after treatment
In short: as §1

[3] = system: southern crabgrass; experiment: as above; settings: 120 g/10a active ingredient, evaluated 14 days after treatment
In short: as §1

[4] = system: Echinochloa crus-galli; experiment: as above; settings: 120 g/10a active ingredient, evaluated 14 days after treatment
In short: as §1

[5] = system: Echinochloa crus-galli; experiment: Test Example 1: herbicidal effect test by treatment of rice paddy soil (immediately after seeding); settings: 120 g/10a active ingredient, dry weight vs untreated area, 14 days after treatment
In short: (§2)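 Pre-emergence paddy water application, 120 g a.i./10 ares, applied immediately post-seeding into ~3 cm flood; glasshouse; duplicate pots; dry weight at 14 d → % inhibition = (1 − treated/untreated) × 100.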

[6] = system: broad leaf weeds (Lindernia pyxidaria and Monochoria vaginalis); experiment: as above; settings: 120 g/10a active ingredient, dry weight vs untreated area, 14 days after treatment; for pest or weed control at 1200 g/ha: 336 h
In short: as §2

[7] = system: Scirpus juncoides; experiment: as above; settings: 120 g/10a active ingredient, dry weight vs untreated area, 14 days after treatment
In short: as §2

[8] = system: Chenopodium album; experiment: Test Example 4: herbicidal effect test by treatment of leave and stem in dry field farming (seven days after seeding); settings: 120 g/10a active ingredient, emulsion sprayed seven days after seeding, evaluated 14 days after treatment
In short: (§3)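 Weeds were seeded at 20 seeds per species into the top 1 cm of alluvial upland soil in pots, then sprayed 7 days after seeding with water-diluted emulsifiable concentrate at 100 L/10 a, giving 120 g active ingredient/10 a. Duplicate pots; herbicidal rate (%) was 14 days post-treatment, from dry weight versus untreated.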

[9] = system: Amaranthus viridis; experiment: as above; settings: 120 g/10a active ingredient, emulsion sprayed seven days after seeding, evaluated 14 days after treatment
In short: as §3

[10] = system: southern crabgrass; experiment: as above; settings: 120 g/10a active ingredient, emulsion sprayed seven days after seeding, evaluated 14 days after treatment
In short: as §3

[11] = system: Echinochloa crus-galli; experiment: as above; settings: 120 g/10a active ingredient, emulsion sprayed seven days after seeding, evaluated 14 days after treatment
In short: as §3

[12] = system: Echinochloa crus-galli; experiment: Test Example 2: herbicidal effect test by treatment during growing period in paddy rice cultivation (seven days after seeding); settings: 120 g/10a active ingredient, assessed 14 days after treatment, dry weight vs untreated area
In short: (§4)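 Paddy soil in Wagner pots with compound fertilizer, puddled; 30 seeds per species sown at 0–1 cm, flooded ~3 cm, greenhouse. Seven days after seeding, water-diluted emulsions were dropped into the water at 120 g active ingredient per 10 ares. Duplicate pots; herbicidal rate from dry weight versus untreated, 14 days after treatment.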

[13] = system: broad leaf weeds (Lindernia pyxidaria and Monochoria vaginalis); experiment: as above; settings: 120 g/10a active ingredient, assessed 14 days after treatment, dry weight vs untreated area; for pest or weed control at 1200 g/ha: 336 h
In short: as §4

[14] = system: Scirpus juncoides; experiment: as above; settings: 120 g/10a active ingredient, assessed 14 days after treatment, dry weight vs untreated area
In short: as §4

Row | Structure (SMILES) | herbicidal rate, Chenopodium album [1] [%] | herbicidal rate, Amaranthus viridis [2] [%] | herbicidal rate, southern crabgrass [3] [%] | herbicidal rate, Echinochloa crus-galli [4] [%] | Herbicidal rate (%) Echinochloa crus-galli [5] [%] | Herbicidal rate (%) Lindernia pyxidaria ([6]; Lindernia pyxidaria) [%] | Herbicidal rate (%) Monochoria vaginalis ([6]; Monochoria vaginalis) [%] | Herbicidal rate (%) Scirpus juncoides [7] [%] | herbicidal effect (herbicidal rate), Chenopodium album [8] [%] | herbicidal effect (herbicidal rate), Amaranthus viridis [9] [%] | herbicidal effect (herbicidal rate), southern crabgrass [10] [%] | herbicidal effect (herbicidal rate), Echinochloa crus-galli [11] [%] | Herbicidal rate (%) Echinochloa crus-galli [12] [%] | Herbicidal rate (%) Lindernia pyxidaria ([13]; Lindernia pyxidaria) [%] | Herbicidal rate (%) Monochoria vaginalis ([13]; Monochoria vaginalis) [%] | Herbicidal rate (%) Scirpus juncoides [14] [%] | also measured
1 | CCC(CC)n1oc(=O)c(Cc2ccccc2N(C(C)=O)S(=O)(=O)C(F)(F)F)c1C [Compound 1-295] | 90 | 90 | 90 | 90 | 90 | 90 | 90 | 90 | 40 | 40 | 90 | 90 | 90 | 90 | 90 | 90 | –
2 | CC(=O)N(c1ccccc1Cc1c(C)n(CC(C)C)oc1=O)S(=O)(=O)C(F)(F)F [Compound 1-297, N-[2-[(2-isobutyl-3-methyl-5-oxoisoxazol-4-yl)methyl]phenyl]-N-(trifluoromethylsulfonyl)acetamide] | – | – | – | – | – | – | – | – | – | – | – | – | – | – | – | – | pest or weed control at 1200 g/ha ([1]; Chenopodium album, 336 h, read-out: herbicidal rate, Chenopodium album): 90%; pest or weed control at 1200 g/ha ([2]; Amaranthus viridis, 336 h, read-out: herbicidal rate, Amaranthus viridis): 90%; pest or weed control at 1200 g/ha ([3]; Digitaria ciliaris, 336 h, read-out: herbicidal rate, southern crabgrass): 90%; pest or weed control at 1200 g/ha ([4]; Echinochloa crus-galli, 336 h, read-out: herbicidal rate, Echinochloa crus-galli): 100%; pest or weed control at 1200 g/ha ([5]; in Echinochloa crus-galli, 336 h, read-out: Herbicidal rate (%) Echinochloa crus-galli): 100%; pest or weed control at 1200 g/ha ([6]; Monochoria vaginalis, read-out: Herbicidal rate (%) Monochoria vaginalis): 100%; pest or weed control at 1200 g/ha ([6]; in Lindernia, Lindernia pyxidaria, read-out: Herbicidal rate (%) Lindernia pyxidaria): 100%; pest or weed control at 1200 g/ha ([7]; in Schoenoplectiella juncoides, 336 h, read-out: Herbicidal rate (%) Scirpus juncoides): 100%; pest or weed control at 1200 g/ha ([8]; Chenopodium album, 336 h, read-out: herbicidal effect (herbicidal rate), Chenopodium album): 40%; pest or weed control at 1200 g/ha ([9]; Amaranthus viridis, 336 h, read-out: herbicidal effect (herbicidal rate), Amaranthus viridis): 40%; pest or weed control at 1200 g/ha ([10]; Digitaria ciliaris, 336 h, read-out: herbicidal effect (herbicidal rate), southern crabgrass): 60%; pest or weed control at 1200 g/ha ([11]; Echinochloa crus-galli, 336 h, read-out: herbicidal effect (herbicidal rate), Echinochloa crus-galli): 80%; pest or weed control at 1200 g/ha ([12]; Echinochloa crus-galli, 336 h, read-out: herbicidal rate (%) Echinochloa crus-galli): 100%; pest or weed control at 1200 g/ha ([13]; Lindernia pyxidaria, read-out: herbicidal rate (%) Lindernia pyxidaria): 100%; pest or weed control at 1200 g/ha ([13]; Monochoria vaginalis, read-out: herbicidal rate (%) Monochoria vaginalis): 90%; pest or weed control at 1200 g/ha ([14]; Schoenoplectiella juncoides, 336 h, read-out: herbicidal rate (%) Scirpus juncoides): 90%
3 | CC(=O)N(c1ccccc1Cc1c(C)n(CC(C)(C)C)oc1=O)S(=O)(=O)C(F)(F)F [Compound 1-298] | 90 | 90 | 90 | 90 | 90 | 90 | 90 | 90 | 40 | 40 | 90 | 90 | 90 | 90 | 90 | 90 | –
4 | CCCC(C)n1oc(=O)c(Cc2ccccc2N(C(C)=O)S(=O)(=O)C(F)(F)F)c1C (centres unmarked) [Compound 1-299] | 40 | 70 | 80 | 90 | 100 | 100 | 80 | 90 | 90 | 40 | 80 | 90 | 100 | 60 | 70 | 90 | –
5 | CCC(C)Cn1oc(=O)c(Cc2ccccc2N(C(C)=O)S(=O)(=O)C(F)(F)F)c1C (centres unmarked) [Compound 1-300] | 60 | 80 | 100 | 90 | 100 | 80 | 70 | 90 | 60 | 70 | 90 | 90 | 100 | 70 | 90 | 80 | –
6 | COCC(C)n1oc(=O)c(Cc2ccccc2N(C(C)=O)S(=O)(=O)C(F)(F)F)c1C (centres unmarked) [Compound 1-304] | 90 | 90 | 90 | 90 | 90 | 90 | 90 | 90 | 40 | 40 | 90 | 90 | 90 | 90 | 90 | 90 | –
7 | CSCCn1oc(=O)c(Cc2ccccc2N(C(C)=O)S(=O)(=O)C(F)(F)F)c1C [Compound 1-305] | 90 | 90 | 90 | 90 | 90 | 90 | 90 | 90 | 40 | 40 | 90 | 90 | 90 | 90 | 90 | 90 | –
8 | CC(=O)N(c1ccccc1Cc1c(C)n(C(C)c2ccccc2)oc1=O)S(=O)(=O)C(F)(F)F (centres unmarked) [Compound 1-310] | 90 | 90 | 90 | 90 | 90 | 90 | 90 | 90 | 40 | 40 | 90 | 90 | 90 | 90 | 90 | 90 | –
